This is an account of results in patent publication US8815877B2, “Serine/threonine kinase inhibitors” (Genentech, Inc., priority 2011, dated 2014).

For assay [1], the target named is T1, human recombinant GST-PAK1-KD protein (Homo sapiens, UniProt Q13153).
T1 construct: residues #249-545 of human PAK1, UniProtKP/Swiss Q13153; made in house; host or cells: Sf9 insect cells (pAcGP67 baculovirus expression vector)
The assay can be described thus: GST-PAK1-KD (Kinase Domain) IC50 biochemical assay (microfluidic mobility shift). The following applies: GST-PAK1-KD inhibition assay. As for the experimental part:
GST-PAK1-KD (Kinase Domain) IC50 Biochemical Assay Protocol
Activity of human recombinant GST-PAK1-KD protein was assessed in vitro assay by observing the phosphorylation of a fluorogenic peptide substrate.
The peptide substrate is a consensus sequence based on various PAK1 substrates reported in the scientific literature. […] Incubations were carried out at 22° C. in MatriCal MP101 384-well Metriplates™. […] Following the 30-minute incubation, the assay mixtures were quenched by the addition of 3 μL of 250 mM EDTA, and the substrate and phosphorylated product were separated by capillary electrophoresis and detected using LabChip® Caliper 3000 (Caliper Life Sciences).

Assay [2] concerns MEK1 phosphorylation at S298. The assay is described as follows: Cellular PAK IC50 assay: MEK1 (S298) phosphorylation by HTRF in EBC1 cells. To be noted: Homo sapiens, EBC-1, 2 h treatment, media containing 0.1% FBS. It is filed as cell-based. As for the experimental part: Cellular PAK IC50 Assay Protocol
Group I PAKs (PAK1-3) are activated upon binding to the Rho GTPases, Rac 1 and Cdc42. Activated group I PAKs phosphorylate MEK1 at Serine 298 (S298), one of the two sites in the catalytic domain that is important for stable association between Raf and MEK1 and subsequent MAPK activation. The inhibition of group I PAKs in EBC1 cells is assessed by detecting changes in the level of MEK1 phosphorylation at S298 using homogenous time-resolved fluorescence (HTRF). Inhibitory activity was estimated by treating 2×10^4 EBC1 cells for 2 h with PAK inhibitors in media containing 0.1% FBS. Following inhibitor treatment, cells were lysed with 25 μL of 1× cellular kinase lysis buffer (Cisbio) containing 1× cellular kinase blocking reagent (Cisbio). Cellular lysis was carried out at 4° C. for 2 h with constant shaking before lysate (16 μL) was transferred to white 384-well ProxiPlates™ (Perkin Elmer). Anti-total MEK1 antibody labeled with Europium cryptate donor (1 ng/well) (Cell Signaling Technologies catalog number 2352) and anti-phospho MEK1 (S298) antibody labeled with d2 acceptor (Cell Signaling Technologies catalog number 9128) (10 ng/well) were prepared in 1× detection buffer (CisBio) and added to each well of the assay plate and allowed to incubate at RT overnight. The following day the fluorescence emission from each well was measured in EnVision® (Perkin Elmer) at an excitation of 330 nm and dual emission wavelengths of 615 nm and 665 nm. The signal in each well at 665 nm was multiplied by 10,000 and divided by the signal in the same well at 615 nm to obtain a ratio. Ratio values ([665*10,000]÷615) were plotted as a function of the concentration of compound to determine IC50 values.
In general terms: TR-FRET usually uses a lanthanide donor and a delayed reading to cut background.

Molecules are shown by their SMILES.

T1 sequence (Q13153 249-545): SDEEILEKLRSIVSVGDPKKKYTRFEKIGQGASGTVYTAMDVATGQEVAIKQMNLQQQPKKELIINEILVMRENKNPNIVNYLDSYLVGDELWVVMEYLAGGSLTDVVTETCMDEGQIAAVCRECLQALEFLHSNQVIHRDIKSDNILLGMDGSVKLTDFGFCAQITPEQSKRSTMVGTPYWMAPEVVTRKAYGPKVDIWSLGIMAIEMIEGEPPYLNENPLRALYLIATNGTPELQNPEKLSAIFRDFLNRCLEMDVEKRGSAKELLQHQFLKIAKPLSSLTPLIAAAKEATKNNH

Usually Ki stands for the dissociation constant of the complex between target and ligand, obtained from inhibition or displacement. Consider `C[C@H](Nc1nccc(Nc2cc(C3CC3)[nH]n2)n1)c1ncc2[nH]ccc2n1` [Compound I-35, (S)—N^2-(1-(5H-pyrrolo[3,2-d]pyrimidin-2-yl)ethyl)-N^4-(5-cyclopropyl-1H-pyrazol-3-yl)pyrimidine-2,4-diamine], for which, in assay [1], the Ki turned out to be 3 nM.

The term IC50 denotes the concentration at which inhibition is half-maximal. Low readings indicate inhibition by little substance, high ones a need for much substance. `C[C@H](Nc1nccc(Nc2cc(C3CC(F)(F)C3)[nH]n2)n1)c1ccc2[nH]ccc2n1` [Compound I-16, (S)—N^2-(1-(1H-pyrrolo[3,2-b]pyridin-5-yl)ethyl)-N^4-(5-(3,3-difluorocyclobutyl)-1H-pyrazol-3-yl)pyrimidine-2,4-diamine] came in with an IC50 in assay [2] of 72.6 nM. In addition, the Ki in assay [1] is 22 nM.

Take `C[C@@H](c1ccc2[nH]ccc2n1)N(C)c1nccc(Nc2cc(C3CC3)[nH]n2)n1` [Compound I-18, (S)—N^2-(1-(1H-pyrrolo[3,2-b]pyridin-5-yl)ethyl)-N^4-(5-cyclopropyl-1H-pyrazol-3-yl)-N^2-methylpyrimidine-2,4-diamine]: the IC50 in assay [2] stood at 221 nM. In addition, the Ki in assay [1] came out at 24 nM.

In assay [2], `C[C@@H](c1ccc2[nH]ccc2n1)N(C)c1nccc(Nc2cc([C@@H]3C[C@@H]3F)[nH]n2)n1` [Compound I-24, N^2-((S)-1-(1H-pyrrolo[3,2-b]pyridin-5-yl)ethyl)-N^4-(5-((1S,2S)-2-fluorocyclopropyl)-1H-pyrazol-3-yl)-N^2-methylpyrimidine-2,4-diamine] returned an IC50 of 191 nM. For the same compound, in assay [1], the Ki was determined as 52 nM.

Consider `c1cc(Nc2cc(C3CC3)[nH]n2)nc(NCc2cncc3[nH]cnc23)n1` [Compound I-33, N^2-((3H-imidazo[4,5-c]pyridin-7-yl)methyl)-N^4-(5-cyclopropyl-1H-pyrazol-3-yl)pyrimidine-2,4-diamine], for which, in assay [1], the Ki was found to be 494 nM.

On to `C[C@H](Nc1nccc(Nc2cc(C3CC3)[nH]n2)n1)c1cc2cc[nH]c2cn1` [Compound I-7, (S)—N^2-(1-(1H-pyrrolo[2,3-c]pyridin-5-yl)ethyl)-N^4-(5-cyclopropyl-1H-pyrazol-3-yl)pyrimidine-2,4-diamine], for which, in assay [2], half-maximal inhibition (IC50) required 68.4 nM. Also, the Ki in assay [1] stood at 5 nM.

In the case of `C[C@H](Nc1nccc(Nc2cc(C3CC3)[nH]n2)n1)c1ccc2[nH]ccc2n1` [Compound I-12, (S)—N^2-(1-(1H-pyrrolo[3,2-b]pyridin-5-yl)ethyl)-N^4-(5-cyclopropyl-1H-pyrazol-3-yl)pyrimidine-2,4-diamine], in assay [2], the IC50 worked out at 45.5 nM. Further, the Ki in assay [1] is 16 nM.

The compound `CN(Cc1ccc2[nH]ccc2n1)c1nccc(Nc2cc(C3CC3)[nH]n2)n1` [Compound I-10, N^2-((1H-pyrrolo[3,2-b]pyridin-5-yl)methyl)-N^4-(5-cyclopropyl-1H-pyrazol-3-yl)-N^2-methylpyrimidine-2,4-diamine] gave an IC50 in assay [2] of 1100 nM. Besides, in assay [1], the inhibitory constant (Ki) turned out to be 67 nM.

Compound `C[C@H](Nc1nccc(Nc2cc(C3CC3)[nH]n2)n1)c1nccc2[nH]ccc12` [Compound I-4, N^2-((S)-1-(1H-pyrrolo[3,2-c]pyridin-4-yl)ethyl)-N^4-(5-cyclopropyl-1H-pyrazol-3-yl)pyrimidine-2,4-diamine] had an IC50 in assay [2] of 325 nM. In addition, in assay [1], the Ki was 60 nM.

In turn, `c1cc(Nc2cc(C3CC3)[nH]n2)nc(NCc2cnc3[nH]ccc3c2)n1` [Compound I-6, N^2-((1H-Pyrrolo[2,3-b]pyridin-5-yl)methyl)-N^4-(5-cyclopropyl-1H-pyrazol-3-yl)pyrimidine-2,4-diamine] displayed an IC50 in assay [2] of 709 nM. The Ki in assay [1] was found to be 72 nM.

For the compound `C[C@@H](c1ccc2[nH]ccc2n1)N(C)c1nccc(Nc2cc([C@H]3C[C@@H]3F)[nH]n2)n1` [Compound I-28, N^2—((S)-1-(1H-pyrrolo[3,2-b]pyridin-5-yl)ethyl)-N^4-(5-((1R,2S)-2-fluorocyclopropyl)-1H-pyrazol-3-yl)-N^2-methylpyrimidine-2,4-diamine], in assay [2], the IC50 was determined as 53.1 nM. Further, in assay [1], the Ki turned out to be 8 nM.
